From patent publication US20120029187A1, “HALOALKYLSULFONANILIDE DERIVATIVE” (Nissan Chemical Industries, Ltd., priority 2009, published 2012)

Key:
Type in all cases: in vivo
bulrush [1] = assay: Test Example 1: herbicidal effects in preemergence treatment under submerged conditions; conditions: dose 2.52 g/a
Method in brief: (§1)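 Weed seeds and 2.5-leaf rice seedlings shared each flooded cup of alluvial soil. Dosing, expressed as g per are, was by pouring water-diluted emulsifiable concentrate onto the surface on sowing day. Mortality was graded 0 to 5 after three weeks' growth.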

ducksalad [2] = assay: as above; conditions: dose 2.52 g/a
Method in brief: as §1

barnyardgrass [3] = assay: as above; conditions: dose 2.52 g/a
Method in brief: as §1

beadstraw [4] = assay: Test Example 4: herbicidal effect in foliage treatment; conditions: dose 3.2 g/a, three weeks after application
Method in brief: (§2)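 Sowing in sterilized diluvial soil, ~1.5 cm cover; growth 14 d, 25–30° C greenhouse; foliar spray of water-diluted EC at predetermined g/a; scoring 3 wk later on graded scale.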

common lambsquater [5] = assay: as above; conditions: dose 3.2 g/a, three weeks after application
Method in brief: as §2

redroot pigweed [6] = assay: as above; conditions: dose 3.2 g/a, three weeks after application
Method in brief: as §2

posumbu knotweed [7] = assay: as above; conditions: dose 3.2 g/a, three weeks after application
Method in brief: as §2

giant foxtail [8] = assay: as above; conditions: dose 3.2 g/a, three weeks after application
Method in brief: as §2

large crabgrass [9] = assay: as above; conditions: dose 3.2 g/a, three weeks after application
Method in brief: as §2

velvetleaf [10] = assay: as above; conditions: dose 3.2 g/a, three weeks after application
Method in brief: as §2

common ragweed [11] = assay: as above; conditions: dose 3.2 g/a, three weeks after application
Method in brief: as §2

common chickweed [12] = assay: as above; conditions: dose 3.2 g/a, three weeks after application
Method in brief: as §2

Italian ryegrass [13] = assay: as above; conditions: dose 3.2 g/a, three weeks after application
Method in brief: as §2

water foxtail [14] = assay: as above; conditions: dose 3.2 g/a, three weeks after application
Method in brief: as §2

barnyardgrass [15] = assay: as above; conditions: dose 3.2 g/a, three weeks after application
Method in brief: as §2

beadstraw [16] = assay: Test Example 3: herbicidal effects in soil treatment; conditions: dose 3.2 g/a
Method in brief: (§3)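 Seeds were sown in sterilized diluvial soil and covered with about 1.5 cm of soil. Compounds, formulated as emulsifiable concentrates and diluted with water, were sprayed evenly over the soil surface at set doses in g/a. Herbicidal effect was scored on a rating scale three weeks later.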

common lambsquater [17] = assay: as above; conditions: dose 3.2 g/a
Method in brief: as §3

redroot pigweed [18] = assay: as above; conditions: dose 3.2 g/a
Method in brief: as §3

posumbu knotweed [19] = assay: as above; conditions: dose 3.2 g/a
Method in brief: as §3

giant foxtail [20] = assay: as above; conditions: dose 3.2 g/a
Method in brief: as §3

large crabgrass [21] = assay: as above; conditions: dose 3.2 g/a
Method in brief: as §3

velvetleaf [22] = assay: as above; conditions: dose 3.2 g/a
Method in brief: as §3

common ragweed [23] = assay: as above; conditions: dose 3.2 g/a
Method in brief: as §3

common chickweed [24] = assay: as above; conditions: dose 3.2 g/a
Method in brief: as §3

Italian ryegrass [25] = assay: as above; conditions: dose 3.2 g/a
Method in brief: as §3

water foxtail [26] = assay: as above; conditions: dose 3.2 g/a
Method in brief: as §3

barnyardgrass [27] = assay: as above; conditions: dose 3.2 g/a
Method in brief: as §3

bulrush [28] = assay: Test Example 2: herbicidal effects during the vegetation period under submerged conditions; conditions: treatment during the vegetation period under submerged conditions; dose 2.52 g/a
Method in brief: (§4)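 Barnyardgrass, bulrush and ducksalad were co-sown in alluvial soil flooded to 4 cm and grown in a greenhouse at 25 to 30° C. At the 1- or 2-leaf stage, water-diluted emulsifiable concentrates went onto the water surface at set doses (g/a). Herbicidal effect was scored three weeks later on a graded scale.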

ducksalad [29] = assay: as above; conditions: treatment during the vegetation period under submerged conditions; dose 2.52 g/a
Method in brief: as §4

barnyardgrass [30] = assay: as above; conditions: treatment during the vegetation period under submerged conditions; dose 2.52 g/a
Method in brief: as §4

transplanted rice = assay: Test Example 1: preemergence treatment under submerged conditions, effect on crop; conditions: dose 2.52 g/a
Method in brief: as §1

`CCC(=O)N(c1ccccc1CN1COC(C)(CC(F)(F)F)CC1=O)S(=O)(=O)C(F)(F)F` (centres unmarked) [II-52] was tested, and the “B: bulrush, herbicidal effect (evaluation scale 0-5)” value (“B: bulrush, herbicidal effect” below) (bulrush [1]) was 5 (mortality of 90% or above (nearly complete death)), the “C: ducksalad, herbicidal effect (evaluation scale 0-5)” value (shortened to “C: ducksalad, herbicidal effect”) (ducksalad [2]) was 5 (mortality of 90% or above (nearly complete death)) and the “A: barnyardgrass, herbicidal effect (evaluation scale 0-5)” value (barnyardgrass [3]) was 5 (mortality of 90% or above (nearly complete death)). For the same compound, the “O: beadstraw, herbicidal effect” value (beadstraw [4]) was 5 (mortality of 90% or above (nearly complete death)), the “L: common lambsquater, herbicidal effect” value (common lambsquater [5]) was 4 (mortality of at least 70% and less than 90%) and the “K: redroot pigweed, herbicidal effect” value (redroot pigweed [6]) was 0 (mortality of less than 5% (almost ineffective)). For the same compound, the “M: posumbu knotweed, herbicidal effect” value (posumbu knotweed [7]) was 1 (mortality of at least 5% and less than 20%), the “E: giant foxtail, herbicidal effect” value (giant foxtail [8]) was 5 (mortality of 90% or above (nearly complete death)) and the “D: large crabgrass, herbicidal effect” value (large crabgrass [9]) was 4 (mortality of at least 70% and less than 90%). The “I: velvetleaf, herbicidal effect” value (velvetleaf [10]) was 3 (mortality of at least 40% and less than 70%), the “J: common ragweed, herbicidal effect” value (common ragweed [11]) was 3 (mortality of at least 40% and less than 70%) and the “N: common chickweed, herbicidal effect” value (common chickweed [12]) was 4 (mortality of at least 70% and less than 90%). The “H: Italian ryegrass, herbicidal effect” value (Italian ryegrass [13]) was 4 (mortality of at least 70% and less than 90%), the “G: water foxtail, herbicidal effect” value (water foxtail [14]) was 5 (mortality of 90% or above (nearly complete death)) and the “A: barnyardgrass, herbicidal effect” value (barnyardgrass [15]) was 5 (mortality of 90% or above (nearly complete death)). The “O: beadstraw, herbicidal effect (evaluation scale 0-5)” value (beadstraw [16]) was 0 (mortality of less than 5% (almost ineffective)), the “L: common lambsquater, herbicidal effect (evaluation scale 0-5)” value (common lambsquater [17]) was 4 (mortality of at least 70% and less than 90%) and the “K: redroot pigweed, herbicidal effect (evaluation scale 0-5)” value (redroot pigweed [18]) was 1 (mortality of at least 5% and less than 20%). The “M: posumbu knotweed, herbicidal effect (evaluation scale 0-5)” value (posumbu knotweed [19]) was 5 (mortality of 90% or above (nearly complete death)), the “E: giant foxtail, herbicidal effect (evaluation scale 0-5)” value (giant foxtail [20]) was 5 (mortality of 90% or above (nearly complete death)) and the “D: large crabgrass, herbicidal effect (evaluation scale 0-5)” value (large crabgrass [21]) was 5 (mortality of 90% or above (nearly complete death)). For the same compound, the “I: velvetleaf, herbicidal effect (evaluation scale 0-5)” value (velvetleaf [22]) was 5 (mortality of 90% or above (nearly complete death)), the “J: common ragweed, herbicidal effect (evaluation scale 0-5)” value (common ragweed [23]) was 5 (mortality of 90% or above (nearly complete death)) and the “N: common chickweed, herbicidal effect (evaluation scale 0-5)” value (common chickweed [24]) was 5 (mortality of 90% or above (nearly complete death)). The “H: Italian ryegrass, herbicidal effect (evaluation scale 0-5)” value (Italian ryegrass [25]) was 5 (mortality of 90% or above (nearly complete death)), the “G: water foxtail, herbicidal effect (evaluation scale 0-5)” value (water foxtail [26]) was 5 (mortality of 90% or above (nearly complete death)) and the “A: barnyardgrass, herbicidal effect (evaluation scale 0-5)” value (barnyardgrass [27]) was 5 (mortality of 90% or above (nearly complete death)). For the same compound, the “B: bulrush, herbicidal effect” value (bulrush [28]) was 5 (mortality of 90% or above (nearly complete death)), the “C: ducksalad, herbicidal effect” value (ducksalad [29]) was 5 (mortality of 90% or above (nearly complete death)) and the “A: barnyardgrass, herbicidal effect (evaluation scale 0-5)” value (barnyardgrass [30]) was 5 (mortality of 90% or above (nearly complete death)). For the same compound, the “a: transplanted rice, effect on crop (evaluation scale 0-5)” value (transplanted rice) was 0 (mortality of less than 5% (almost ineffective)).
`COCC1(C)CC(=O)N(Cc2ccccc2N(C(=O)OCC(C)C)S(=O)(=O)C(F)(F)F)CO1` (centres unmarked) [II-56] was tested, and the “B: bulrush, herbicidal effect” value (bulrush [1]) was 5 (mortality of 90% or above (nearly complete death)), the “C: ducksalad, herbicidal effect” value (ducksalad [2]) was 5 (mortality of 90% or above (nearly complete death)) and the “A: barnyardgrass, herbicidal effect (evaluation scale 0-5)” value (barnyardgrass [3]) was 5 (mortality of 90% or above (nearly complete death)). For the same compound, the “O: beadstraw, herbicidal effect” value (beadstraw [4]) was 3 (mortality of at least 40% and less than 70%), the “L: common lambsquater, herbicidal effect” value (common lambsquater [5]) was 3 (mortality of at least 40% and less than 70%) and the “K: redroot pigweed, herbicidal effect” value (redroot pigweed [6]) was 2 (mortality of at least 20% and less than 40%). For the same compound, the “M: posumbu knotweed, herbicidal effect” value (posumbu knotweed [7]) was 0 (mortality of less than 5% (almost ineffective)), the “E: giant foxtail, herbicidal effect” value (giant foxtail [8]) was 4 (mortality of at least 70% and less than 90%) and the “D: large crabgrass, herbicidal effect” value (large crabgrass [9]) was 0 (mortality of less than 5% (almost ineffective)). For the same compound, the “I: velvetleaf, herbicidal effect” value (velvetleaf [10]) was 5 (mortality of 90% or above (nearly complete death)), the “J: common ragweed, herbicidal effect” value (common ragweed [11]) was 4 (mortality of at least 70% and less than 90%) and the “N: common chickweed, herbicidal effect” value (common chickweed [12]) was 4 (mortality of at least 70% and less than 90%). For the same compound, the “H: Italian ryegrass, herbicidal effect” value (Italian ryegrass [13]) was 3 (mortality of at least 40% and less than 70%), the “G: water foxtail, herbicidal effect” value (water foxtail [14]) was 5 (mortality of 90% or above (nearly complete death)) and the “A: barnyardgrass, herbicidal effect” value (barnyardgrass [15]) was 5 (mortality of 90% or above (nearly complete death)). The “O: beadstraw, herbicidal effect (evaluation scale 0-5)” value (beadstraw [16]) was 0 (mortality of less than 5% (almost ineffective)), the “L: common lambsquater, herbicidal effect (evaluation scale 0-5)” value (common lambsquater [17]) was 3 (mortality of at least 40% and less than 70%) and the “K: redroot pigweed, herbicidal effect (evaluation scale 0-5)” value (redroot pigweed [18]) was 2 (mortality of at least 20% and less than 40%). The “M: posumbu knotweed, herbicidal effect (evaluation scale 0-5)” value (posumbu knotweed [19]) was 3 (mortality of at least 40% and less than 70%), the “E: giant foxtail, herbicidal effect (evaluation scale 0-5)” value (giant foxtail [20]) was 5 (mortality of 90% or above (nearly complete death)) and the “D: large crabgrass, herbicidal effect (evaluation scale 0-5)” value (large crabgrass [21]) was 4 (mortality of at least 70% and less than 90%). For the same compound, the “I: velvetleaf, herbicidal effect (evaluation scale 0-5)” value (velvetleaf [22]) was 5 (mortality of 90% or above (nearly complete death)), the “J: common ragweed, herbicidal effect (evaluation scale 0-5)” value (common ragweed [23]) was 4 (mortality of at least 70% and less than 90%) and the “N: common chickweed, herbicidal effect (evaluation scale 0-5)” value (common chickweed [24]) was 5 (mortality of 90% or above (nearly complete death)). The “H: Italian ryegrass, herbicidal effect (evaluation scale 0-5)” value (Italian ryegrass [25]) was 5 (mortality of 90% or above (nearly complete death)), the “G: water foxtail, herbicidal effect (evaluation scale 0-5)” value (water foxtail [26]) was 5 (mortality of 90% or above (nearly complete death)) and the “A: barnyardgrass, herbicidal effect (evaluation scale 0-5)” value (barnyardgrass [27]) was 5 (mortality of 90% or above (nearly complete death)). The “B: bulrush, herbicidal effect” value (bulrush [28]) was 5 (mortality of 90% or above (nearly complete death)), the “C: ducksalad, herbicidal effect” value (ducksalad [29]) was 5 (mortality of 90% or above (nearly complete death)) and the “A: barnyardgrass, herbicidal effect (evaluation scale 0-5)” value (barnyardgrass [30]) was 5 (mortality of 90% or above (nearly complete death)). For the same compound, the “a: transplanted rice, effect on crop (evaluation scale 0-5)” value (transplanted rice) was 0 (mortality of less than 5% (almost ineffective)).
